Series [1] in a line: Measurement of P: partition coefficient in 1-octanol/water system. Particulars: 25° C., observed, for aspirin and caffeine the parent drug itself.
A short description of series [2]: Measurement of solubility in water, octanol saturated water and water saturated octanol. Particulars: 25° C.; for logSR (Swo/Sow): log solubility ratio; for Sow: solubility in octanol saturated water; for Swo: solubility in water saturated octanol; for Sw: solubility in water.
Description: Solubilities were determined at 25° C. in water (Sw), octanol saturated water (Sow), water saturated octanol (Swo). An excess of the sample was added to 15 ml of each solvent and stirred vigorously at 25° C. for 8 hours. […] The supernatant was collected. The supernatant samples after appropriate dilutions with respective solvent were analyzed by UV spec using a standard plot of solute in the same medium. Solubility of copper acetate in water saturated octanol was determined by extracting 200 ml saturated wo solution into 20 ml ow.
A short description of series [3]: Stability of mixed-ligand Cu(II) complexes in solution (ESI-MS, 1H DOSY NMR). It counts as physicochemical. Particulars: 1H DOSY NMR in D2O, 298K. The method, then:
NMR tubes with a 5-mm internal diameter were used. […] Diffusion coefficients were measured by incrementing the amplitude of the field gradient pulse over 32 steps (0.5-30 G/cm). The bipolar gradient duration and the diffusion time were optimized to 2.4 ms and 14.9 ms, respectively. The intensities were fitted to an exponential decay using the SimFit program within the Topspin software to provide estimates of the diffusion constant.
The formation of Cu(ASP)2(AL)2(H2O) is also observed by us from the ESI-MS of ASP-7 and ASP-8 in aqueous solution. Indeed, for mononuclear Cu(II) species, the coordination of anionic API and neutral AL to copper in solution has been confirmed by the mass spectra.
Since structures of binuclear Cu(II) complexes are analogous, as a model, ASP-3 was investigated by using NMR diffusion measurement for stability studies. Diffusion-Ordered Spectroscopy […]) methods^11 are based on pulsed-field gradient spin-echo NMR experiments. […] The small peak on the left at 8.160 ppm is assigned to one proton of 3-Br-Py by comparing the ^1H NMR spectra of ASP-3 and ASP-3/3-Br-Py mixture. Peaks in the range of 7-8 ppm are due to the peak overstocking of aspirin and 3-Br-Py aromatic protons. […] The diffusion coefficient for ASP-3 was 3.819×10^−9 m^2/s. […]

For series [4] the following is noted: water; from MSDS; cited from earlier work.

Where two headings read alike, the source gives them in different places. Marks after values point to notes of the source that are not given here.

With `CC(=O)Oc1ccccc1C(=O)[O-].CC(=O)Oc1ccccc1C(=O)[O-].CC(=O)Oc1ccccc1C(=O)[O-].CC(=O)Oc1ccccc1C(=O)[O-].[Cu+2].[Cu+2]` [ASP-1, Cu2(ASP)4], the logP of complex in series [1] is on record as −0.2371(267). For the same molecule, in series [2], the “logSR (Swo/Sow)” value was −0.4847, the Sow was 2.981(3) mg/ml, the Swo is recorded as 0.9767(36) mg/ml and the Sw is reported as 3.414(25) mg/ml.
In the case of `Brc1cccnc1.Brc1cccnc1.CC(=O)Oc1ccccc1C(=O)[O-].CC(=O)Oc1ccccc1C(=O)[O-].CC(=O)Oc1ccccc1C(=O)[O-].CC(=O)Oc1ccccc1C(=O)[O-].[Cu+2].[Cu+2]` [ASP-3, Cu2(ASP)4(3-Br-Py)2], in series [3], the diffusion coefficient is listed as 3.819×10^−9 m^2/s. Besides, in series [1], the logP of complex is 0.1066(58). Also, in series [2], the “logSR (Swo/Sow)” value is recorded as −0.09583, the Sow is on record as 1.566(5) mg/ml, the Swo is 1.256(15) mg/ml and the Sw is 1.564(3) mg/ml.
For `CC(=O)Oc1ccccc1C(=O)[O-].CC(=O)Oc1ccccc1C(=O)[O-].NC(=O)c1ccncc1.NC(=O)c1ccncc1.[Cu+2]` [ASP-7, Cu(ASP)2(Isonicotinamide)2], the logP of complex in series [1] is listed as −0.4723(272). Also, in series [2], the “logSR (Swo/Sow)” value was −0.5333, the Sow is listed as 5.654(20) mg/ml, the Swo is on record as 1.673(9) mg/ml and the Sw was 9.259(5) mg/ml.
As to “Cu2(CH3COO)4(H2O)2 [MC-1, reference compound]”, the Sw in series [4] was 72^a mg/ml. The logP of complex in series [1] is recorded as −2.222(553). In series [2], the “logSR (Swo/Sow)” value is listed as −2.807 and the Swo is given as 0.1161(438) mg/ml.
Take `CC(=O)Oc1ccccc1C(=O)[O-].CC(=O)Oc1ccccc1C(=O)[O-].NC(=O)c1cccnc1.NC(=O)c1cccnc1.[Cu+2]` [ASP-8, Cu(ASP)2(Nicotinamide)2]: the logP of complex in series [1] is reported as −0.5257(136). Further, in series [2], the “logSR (Swo/Sow)” value is recorded as −0.6490, the Sow is given as 3.361(29) mg/ml, the Swo is reported as 0.7541(97) mg/ml and the Sw is on record as 4.417(50) mg/ml.
Taken in the same sequence, the figures for `CC(=O)[O-].CC(=O)[O-].COc1cccc(OC)c1C(=O)[O-].COc1cccc(OC)c1C(=O)[O-].O.O.[Cu+2].[Cu+2]` [MC-2, Cu2(CH3COO)2(DMB)2(H2O)2] were −1.496(15), −1.428, 15.64(14) mg/ml, 0.5841(103) mg/ml and 15.82(11) mg/ml.
The matching figures for `CC(=O)Oc1ccccc1C(=O)[O-].CC(=O)Oc1ccccc1C(=O)[O-].CC(=O)Oc1ccccc1C(=O)[O-].CC(=O)Oc1ccccc1C(=O)[O-].[Cu+2].[Cu+2].c1ccc2ncccc2c1.c1ccc2ncccc2c1` [ASP-4, Cu2(ASP)4(Quinoline)2]: 0.4772(140), 0.2133, 3.342(3) mg/ml, 5.460(23) mg/ml and 2.729(1) mg/ml.
With `Clc1cccnc1.Clc1cccnc1.O=C(Oc1ccccc1C(=O)[O-])c1ccccc1O.O=C(Oc1ccccc1C(=O)[O-])c1ccccc1O.O=C(Oc1ccccc1C(=O)[O-])c1ccccc1O.O=C(Oc1ccccc1C(=O)[O-])c1ccccc1O.[Cu+2].[Cu+2]` [SAS-3, Cu2(SAS)4(3-Cl-Pyridine)2], in series [2], the “logSR (Swo/Sow)” value is listed as 0.7472, the Sow is reported as 0.1259(4) mg/ml, the Swo was 0.7034(61) mg/ml and the Sw is 0.1239(1) mg/ml.
For the molecule `COc1cccc(OC)c1C(=O)[O-].COc1cccc(OC)c1C(=O)[O-].COc1cccc(OC)c1C(=O)[O-].COc1cccc(OC)c1C(=O)[O-].O.O.[Cu+2].[Cu+2]` [MC-3, Cu2(DMB)4(H2O)2], the logP of complex in series [1] is −1.442(27). Besides, in series [2], the “logSR (Swo/Sow)” value is −0.9168, the Sow is 31.97(19) mg/ml, the Swo was 3.872(125) mg/ml and the Sw is on record as 33.61(21) mg/ml.
With `O=C(Oc1ccccc1C(=O)[O-])c1ccccc1O.O=C(Oc1ccccc1C(=O)[O-])c1ccccc1O.[Cu+2].c1ccncc1.c1ccncc1.c1ccncc1` [SAS-6, Cu(SAS)2(Pyridine)3], in series [2], the “logSR (Swo/Sow)” value was found to be 0.7655, the Sow is recorded as 0.3291(8) mg/ml, the Swo is given as 1.918(5) mg/ml and the Sw is 0.4065(8) mg/ml.
In the case of “Cu(ASP)2(Isonicotinamide)2(AcCN)2 [ASP-6]”, in series [1], the logP of complex is listed as −0.4647(274). In addition, in series [2], the “logSR (Swo/Sow)” value is given as −0.4980, the Sow is 5.767(7) mg/ml, the Swo is 1.832(17) mg/ml and the Sw is listed as 9.315(10) mg/ml.
For `CC(=O)Oc1ccccc1C(=O)[O-].CC(=O)Oc1ccccc1C(=O)[O-].[Cu+2].c1ccncc1.c1ccncc1` [ASP-5, Cu(ASP)2(Pyridine)2], in series [2], the “logSR (Swo/Sow)” value is listed as −0.4770, the Sow was 3.629(24) mg/ml, the Swo was 1.210(47) mg/ml and the Sw is on record as 3.425(21) mg/ml.
“Cu(SAS)2(Isonicotinamide)2(AcCN)2/3 [SAS-7]”: the logP of complex in series [1] is 0.03802(967). In series [2], the “logSR (Swo/Sow)” value was found to be 0.4241, the Sow is 0.2890(10) mg/ml, the Swo is reported as 0.8344(165) mg/ml and the Sw was 0.3143(9) mg/ml.
On to `CC(=O)Oc1ccccc1C(=O)[O-].CC(=O)Oc1ccccc1C(=O)[O-].[Cu+2].c1ccc(-c2cccnc2)cc1.c1ccc(-c2cccnc2)cc1` [ASP-9, Cu(ASP)2(3-Phenyl-Pyridine)2], for which, in series [2], the “logSR (Swo/Sow)” value was 0.4495, the Sow is given as 0.4085(17) mg/ml, the Swo is 1.150(20) mg/ml and the Sw is 0.5415(7) mg/ml.
Taken in the same sequence, the figures for `O=C(Oc1ccccc1C(=O)[O-])c1ccccc1O.O=C(Oc1ccccc1C(=O)[O-])c1ccccc1O.O=C(Oc1ccccc1C(=O)[O-])c1ccccc1O.O=C(Oc1ccccc1C(=O)[O-])c1ccccc1O.[Cu+2].[Cu+2].c1ccc(Cc2ccncc2)cc1.c1ccc(Cc2ccncc2)cc1` [SAS-4, Cu2(SAS)4(4-Benzyl-Pyridine)2] were 1.336, 0.0153(3) mg/ml, 0.3314(22) mg/ml and 0.0134(3) mg/ml.
The matching figures for `CCc1ccncc1.CCc1ccncc1.O=C(Oc1ccccc1C(=O)[O-])c1ccccc1O.O=C(Oc1ccccc1C(=O)[O-])c1ccccc1O.[Cu+2]` [SAS-9, Cu(SAS)2(4-Et-Pyridine)2]: 1.115, 0.1104(8) mg/ml, 1.438(9) mg/ml and 0.1143(2) mg/ml.
In the case of `CC(=O)Oc1ccccc1C(=O)[O-].CC(=O)Oc1ccccc1C(=O)[O-].CC(=O)Oc1ccccc1C(=O)[O-].CC(=O)Oc1ccccc1C(=O)[O-].CN(C)C=O.CN(C)C=O.[Cu+2].[Cu+2]` [ASP-2, Cu2(ASP)4(DMF)2], in series [1], the logP of complex was −0.3484(166). Also, in series [2], the “logSR (Swo/Sow)” value is −0.4873, the Sow was 4.493(4) mg/ml, the Swo is 1.463(26) mg/ml and the Sw was 3.092(33) mg/ml.
The matching figures for `C1CCOC1.C1CCOC1.O=C(Oc1ccccc1C(=O)[O-])c1ccccc1O.O=C(Oc1ccccc1C(=O)[O-])c1ccccc1O.O=C(Oc1ccccc1C(=O)[O-])c1ccccc1O.O=C(Oc1ccccc1C(=O)[O-])c1ccccc1O.[Cu+2].[Cu+2].c1ccc(-c2ccncc2)cc1.c1ccc(-c2ccncc2)cc1` [SAS-5, Cu2(SAS)4(4-Phenyl-Pyridine)2(THF)2]: 1.231(53), 1.593, 0.0315(2) mg/ml, 1.236(18) mg/ml and 0.0303(3) mg/ml.
As to `Cc1ccncc1.Cc1ccncc1.O=C(Oc1ccccc1C(=O)[O-])c1ccccc1O.O=C(Oc1ccccc1C(=O)[O-])c1ccccc1O.[Cu+2]` [SAS-8, Cu(SAS)2(4-Me-Pyridine)2], in series [2], the “logSR (Swo/Sow)” value amounted to 0.9488, the Sow is reported as 0.2174(10) mg/ml, the Swo is listed as 1.932(23) mg/ml and the Sw was 0.2301(18) mg/ml.
Consider `O.O.O=C(Oc1ccccc1C(=O)[O-])c1ccccc1O.O=C(Oc1ccccc1C(=O)[O-])c1ccccc1O.O=C(Oc1ccccc1C(=O)[O-])c1ccccc1O.O=C(Oc1ccccc1C(=O)[O-])c1ccccc1O.[Cu+2].[Cu+2]` [SAS-1, Cu2(SAS)4(H2O)2], for which the logP of complex in series [1] is 0.06927(1394). In series [2], the “logSR (Swo/Sow)” value is 1.033, the Sow is 0.2962(10) mg/ml, the Swo is on record as 3.200(5) mg/ml and the Sw was 0.2791(6) mg/ml.

Source of the values: US20090209046A1, “Neutral Pharmaceuticals” (priority 2006, published 2009).
